Measured values as given in patent US11370846B2, “Compositions and methods to regulate Renalase in the treatment of cancer” (Yale University, priority 2014, dated 2022).

How the values were obtained:
MiaPaCa2 cell = conditions: pretreatment, MiaPaCa2, WST-1, 72 hrs
Experimental: FIG. 24B is a chart depicting cell viability relative to control: MiaPaCa2 cell serum starved and then treated with BSA (30 μg/ml) or rRNLS (30 μg/ml), with and without pretreatment with MEK1 inhibitor U0126, and cell viability measured 72 hrs later using the WST-1 assay; n=6, * indicates p<0.005.
For some studies, cell viability was determined using the WST-1 reagent (Roche Diagnostics, Indianapolis, Ind., USA) as previously described (Wang et al., 2014 Journal of the American Society of Nephrology. DOI:10.1681/asn.2013060665).

WT mice = test: Renal ischemia and reperfusion in WT mice with renalase peptide RP-H220; format: in vivo, mouse; conditions: 30 minutes of renal ischemia and reperfusion
Experimental: FIG. 3 is a chart showing that ERK or AKT inhibition abrogates protective effect of renalase peptide: WT mice subjected to sham surgery or to 30 minutes of renal ischemia and reperfusion; RP-[…] or vehicle (saline) injected 10 minutes before renal ischemia. ERK inhibitor PD98059 or the PI3K/AKT inhibitor wortmannin abrogated RP-[…]'s protective effect.

Row | Structure (SMILES) | effect on rRNLS' protective effect (MiaPaCa2 cell) | effect on RP-H220's protective effect (WT mice)
1 | N#CC(=C(/N)Sc1ccccc1N)/C(C#N)=C(\N)Sc1ccccc1N [U0126] | abrogated rRNLS' protective effect | –
2 | COc1cccc(-c2cc(=O)c3ccccc3o2)c1N [PD98059] | – | abrogated RP-H220's protective effect
